# According to patent EP0714404B1, “ANTI-INFLAMMATORY PEPTIDES” (CURATIVE TECHNOLOGIES, INC., priority 1993, dated 1995):
# Read-outs that look alike come from different tables or passages of the source. Residues, ends and D or L forms follow the SMILES beside them.
# Test system: Arachidonic Acid Induced Inflammation
# Type: in vivo, mice
# Conditions: for % Reduction of Ear Swelling / Ear Thickness: sc minipump
# Procedure: The anti-inflammatory properties of CT-112 (SEQ. ID NO: 1) were assessed using a standardized assay for anti-inflammatory activity, i.e., the mouse ear model in which arachidonic acid (AA) is used to induce an inflammatory reaction (Young et al., 1984, J. Invest. Dermatol. 82:367-371; Doherty, et al., 1988, J. Invest. Dermatol. 91:298-302).
# Female mice (C57BL/6UAF, Charles River Breeding Laboratories, approximately 15-18 g) were obtained and acclimated for 2 weeks prior to use. The animals were approximately 14 weeks old at the start of the study.
# To prepare minipumps for implantation, CT-112 (SEQ. ID NO: 1) was dissolved in PBS. The material was loaded into Alzet minipumps set to deliver 0.05 (5 animals), 0.1 (10 animals), 1 (10 animals), or 2.5 (5 animals) mg of CT-112 (SEQ. ID NO: 1) per animal per day. Minipumps for implantation into control animals contained only PBS. As a positive control, one set of 10 mice received 100 mg/kg of phenidone, a potent 5-lipoxygenase inhibitor which acts as an anti-inflammatory agent, 15 min prior to challenge with AA.
# For subcutaneous implantation of minipumps, animals were anesthetized with Ketamine/Xylazine. The Ketamine (Aveco Lot #440140) was injected at 80 mg/kg and the Xylazine (Rugby Laboratories Lot #26040-B) at 16 mg/kg and the Alzet pumps were implanted subcutaneously in the dorsothoracic area. Animals were allowed to recover and then housed and given food and water ad libitum for 5 days.
# On the sixth day following pump implantation, 0.01 ml of AA was applied to the inner and outer surfaces of the right ear by means of an automatic microliter pipette. One hr following AA application, the mice were sacrificed and ear thickness was measured with a Mitutoyo No. 7300 Gauge Caliper. The left ears were also measured as an internal control.
# Mice were implanted with Alzet mini-pumps set to deliver 60 mg/kg/day for either 7, 3, or 1 days. A separate group of 5 mice received 3 intraperitoneal injections of CT-112 (60 mg/kg/injection) at 24, 1 and 0.25 hr prior to AA challenge. CT-112 (SEQ. ID NO: 1) was prepared for injection by dissolving the compound in Dulbecco's PBS to give a final CT-112 (SEQ. ID NO: 1) concentration of 5 mg/ml. The control mice were implanted with Alzet minipumps that delivered PBS for 7 days. The AA challenge was the same as described supra in Example 7.
# Administration of CT-112 (SEQ. ID NO: 1) (60 mg/kg/injection) via multiple intraperitoneal injections was performed at the following times prior to AA challenge: • a) 6, 3, 1 and 0.25 hr; • b) 3, 1 and 0.25 hr; or • c) 1 and 0.25 hr.
# In addition, the effect of a single administration of CT-112 (SEQ. ID NO: 1) (60 mg/kg) by intraperitoneal injection was performed at either 1 or 3 hr prior to AA challenge. Control mice had Alzet minipumps implanted to deliver PBS for 7 days prior to AA challenge. The AA challenge was the same as described supra in Example 7. The results of the multiple dosing regimens and the 1 hr and 3 hr single dosing regimens were compared to the anti-inflammatory activity of CT-112 (SEQ. ID NO: 1) delivered via Alzet minipump set to deliver 60 mg/kg/day for 7 days using 5 animals per treatment.
# In a separate experiment, the effect of multiple intraperitoneal injections of CT-112 (SEQ. ID NO: 1) at either 6, 3, 1 and 0.25 hr, or 16, 3, 1 and 0.25 hr prior to AA challenge was assessed. The results of both multi-dosing regimens were compared to both phenidone (100 mg/kg administered 15 min prior to AA challenge) and CT-112 (SEQ. ID NO: 1) administered via Alzet mini-pump (60 mg/kg/day for 7 days). For this latter study, the number of animals receiving the single injection of CT-112 (SEQ. ID NO: 1) was increased from 5 to 10.
# Administration to mice of CT-112 (SEQ. ID NO: 1) (60 mg/kg/injection) via multiple subcutaneous injections prior to AA challenge was performed at: • a) 6, 3, 1 and 0.25 hr; • b) 3, 1 and 0.25 hr; or • c) 1 and 0.25 hr. […]
# [1] = 0.05 mg/animal/day, AA on sixth day
compound,measurement,setting,value
"CC(C)[C@H](NC(=O)[C@H](CCC(N)=O)NC(=O)[C@H](CO)NC(=O)[C@@H](NC(=O)[C@@H](N)[C@@H](C)O)[C@@H](C)O)C(=O)N[C@@H](CCCNC(=N)N)C(=O)N1CCC[C@H]1C(=O)N[C@@H](CCCNC(=N)N)C(=O)O [CT-112, Thr-Thr-Ser-Gln-Val-Arg-Pro-Arg] (H-TTSQVRPR-OH)",% Reduction of Ear Swelling,[1],43.1%
same,Ear Thickness,[1],0.01577 ± 0.00155 (5) in
same,% Reduction of Ear Swelling,0.1 mg/animal/day,43.1%
same,Ear Thickness,0.1 mg/animal/day,0.01577 ± 0.00191 (10) in
same,% Reduction of Ear Swelling,1.0 mg/animal/day,89.0%
same,Ear Thickness,1.0 mg/animal/day,0.01128 ± 0.00291 (10) in
same,% Reduction of Ear Swelling,2.5 mg/animal/day,95.6%
same,Ear Thickness,2.5 mg/animal/day,0.0106 ± 0.00175 (5) in
same,Thickness Difference (Left-Right),"Table III, 1-day pump, 60 mg/kg/day",-0.00074 ± 0.00119 in
same,Thickness Difference (Left-Right),"Table III, 3-day pump, 60 mg/kg/day",-0.00115 ± 0.00058 in
same,Thickness Difference (Left-Right),"Table III, 7-day pump, 60 mg/kg/day",-0.00051 ± 0.00116 in
same,Thickness Difference (Left-Right),"Table III, ip 60 mg/kg/injection at 24, 1 and 0.25 hr prior to AA",0.00226 ± 0.00124 in
same,Thickness Difference (Left-Right),"Table IV, 7-day pump, 60 mg/kg/day",0.00033 ± 0.00065 in
same,Thickness Difference (Left-Right),"Table IV, ip 60 mg/kg/injection at 1 and 0.25 hr prior to AA",0.00192 ± 0.00148 in
same,Thickness Difference (Left-Right),"Table IV, ip 60 mg/kg/injection at 3, 1 and 0.25 hr prior to AA",0.00141 ± 0.00138 in
same,Thickness Difference (Left-Right),"Table IV, ip 60 mg/kg/injection at 6, 3, 1 and 0.25 hr prior to AA",0.00144 ± 0.00126 in
same,Thickness Difference (Left-Right),"Table IV, single ip 60 mg/kg 1 hr prior to AA",0.00308 ± 0.00189 in
same,Thickness Difference (Left-Right),"Table IV, single ip 60 mg/kg 3 hr prior to AA",0.00116 ± 0.001 in
same,Thickness Difference (Left-Right),"Table V, 7-day pump, 60 mg/kg/day",-0.00003 ± 0.0012(5) in
same,Thickness Difference (Left-Right),"Table V, ip injections at 6, 3, 1 and 0.25 hr prior to AA",0.00249 ± 0.0017(10) in
same,Thickness Difference (Left-Right),"Table V, ip injections at 16, 3, 1 and 0.25 hr prior to AA",0.00283 ± 0.00218(10) in
same,Thickness Difference (Left-Right),"Table VI, 7-day pump, 60 mg/kg/day",0.00083 ± 0.00084 in
same,Thickness Difference (Left-Right),"Table VI, sc 60 mg/kg/injection at 1 and 0.25 hr prior to AA",0.00195 ± 0.00131 in
same,Thickness Difference (Left-Right),"Table VI, sc 60 mg/kg/injection at 3, 1 and 0.25 hr prior to AA",0.00193 ± 0.0007 in
same,Thickness Difference (Left-Right),"Table VI, sc 60 mg/kg/injection at 6, 3, 1 and 0.25 hr prior to AA",0.00147 ± 0.00041 in
same,Thickness Difference (Left-Right),"Table VI, single sc 60 mg/kg 1 hr prior to AA",0.00174 ± 0.00128 in
same,Thickness Difference (Left-Right),"Table VI, single sc 60 mg/kg 3 hr prior to AA",0.00213 ± 0.00089 in
same,Thickness Difference (Left-Right),"Table VII, 3 day pump, 60 mg/kg/day",0.00127 ± 0.00128 in
same,Thickness Difference (Left-Right),"Table VII, single ip 3 hr prior to AA",0.00242 ± 0.00187 in
same,Thickness Difference (Left-Right),"Table VII, single sc 1 hr prior to AA",0.00214 ± 0.00122 in
same,Thickness Difference (Left-Right),"Table VII, single sc 3 hr prior to AA",0.00243 ± 0.00107 in
same,Thickness Difference (Left-Right),"Table VII, single sc 6 hr prior to AA",0.00117 ± 0.00066 in
same,Thickness Difference (Left-Right),"Table VII, single sc -.25 (hr) prior to AA",0.00252 ± 0.00128 in
same,Thickness Difference (Left-Right),"Table VIII, 3 day pump, 60 mg/kg/day",0.00058 ± 0.00086 in
same,Thickness Difference (Left-Right),"Table VIII, po 200 mg/kg/gavage at 1 and 0.25 hr prior to AA",0.00241 ± 0.00124 in
same,Thickness Difference (Left-Right),"Table VIII, po 200 mg/kg/gavage at 3, 1 and 0.25 hr prior to AA",0.0028 ± 0.00114 in
same,Thickness Difference (Left-Right),"Table VIII, po 200 mg/kg/gavage at 6, 3, 1 and 0.25 hr prior to AA",0.00134 ± 0.00257 in
same,Thickness Difference (Left-Right),"Table VIII, single gavage 200 mg/kg 1 hr prior to AA",0.00139 ± 0.00122 in
same,Thickness Difference (Left-Right),"Table VIII, single gavage 200 mg/kg 3 hr prior to AA",0.00031 ± 0.00198 in
same,Thickness Difference (Left-Right),"Table XI, 6 mg/kg/day, minipump, AA three days after implantation",0.00381 ± 0.00066 in
same,Thickness Difference (Left-Right),"Table XI, 60 mg/kg/day, minipump, AA three days after implantation",0.00095 ± 0.00064 in
same,Thickness Difference (Left-Right),"Table XIII, 24 hr via Alzet pump, 60 mg/kg/day",0.00132 ± 0.00086 in
same,Difference Treatment (Left - Right),"Table XIV, 24 hr via Alzet pump, 60 mg/kg/day",0.00134 ± 0.00044 in
same,Thickness Difference (Left-Right),"Table XV, 24 hr via Alzet pump, 60 mg/kg/day",0.00154 ± 0.00092 in
same,% Inhibition of Inflammation,"mouse, in vivo, 6 mg/kg/day",40.8%
same,% Inhibition of Inflammation,"mouse, in vivo, 60 mg/kg, 3 h",78.5%
same,% Inhibition of Inflammation,"mouse, in vivo, 200 mg/kg, 1 h",72.3%
same,% Inhibition of Inflammation,"mouse, in vivo, 200 mg/kg, 3 h",93.8%
same,% Inhibition of Inflammation,"mouse, in vivo, ip, 60 mg/kg",62%
same,% Inhibition of Inflammation,"mouse, in vivo, ip, 3 h",37.2%
same,inhibition of the inflammatory process,"mouse, in vivo, po, 200 mg/kg",52-94%
same,% Inhibition of Inflammation,"mouse, in vivo, sc",34.7%
same,% Inhibition of Inflammation,"mouse, in vivo, sc, 60 mg/kg, 1 h",71.8%
same,% Inhibition of Inflammation,"mouse, in vivo, sc, 60 mg/kg, 3 h",65.5%
same,% Inhibition of Inflammation,"mouse, in vivo, sc, 1 h",44.5%
same,% Inhibition of Inflammation,"mouse, in vivo, sc, 3 h",36.9%
same,% Inhibition of Inflammation,"mouse, in vivo, sc, 6 h",69.6%
same,reduction in inflammation,"multiple IP injections at 6, 3, 1 and 0.25 hr or 16, 3, 1 and 0.25 hr prior to AA",56-61%
same,duration of activity,"subcutaneous injection, 60 mg/kg",greater than 6 hr
same,inhibition of the inflammatory process,"subcutaneous injection, all multi-dosing and single-dosing regimens, 60 mg/kg/injection",approximately 70%
